This passage reports IC50 results from US20230143612A1 (Arbutus Biopharma Corporation, priority 2020, published 2023).

pIC50: −log10 of the molar value.

The experiment addresses PD-L1 His protein / PD-1 Fc protein (Homo sapiens, UniProt Q9NZQ7). As to the kind of experiment: HTRF Assay (PD-1/PD-L1 interaction). As to conditions: PD-L1 His 6 nM, PD-1 Fc 6 nM. The experiment is classed as binding. An outline of the steps:
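HTRF: PD-L1 His (6 nM final), compound (3-fold dilutions, 20 μM to 0.001 μM final) and PD-1 Fc (6 nM final) preincubated 15 min at room temperature. Anti-human IgG-XL665 and anti-6HIS Tb cryptate (mixed at 6.7 nM and 0.35 nM) then added for 1 h at room temperature before reading.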

Sequence of PD-L1 His protein / PD-1 Fc protein (Q9NZQ7 19-238 limits assumed): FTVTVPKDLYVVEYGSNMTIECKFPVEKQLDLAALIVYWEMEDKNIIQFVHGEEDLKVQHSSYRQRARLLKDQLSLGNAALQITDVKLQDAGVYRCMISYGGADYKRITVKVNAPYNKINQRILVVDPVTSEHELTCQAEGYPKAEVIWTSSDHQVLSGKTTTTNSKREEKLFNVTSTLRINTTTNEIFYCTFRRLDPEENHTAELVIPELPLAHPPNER

As for `COc1nc(-c2cccc(-c3cccc(-c4ccn5c(=O)c(CNC[C@H](C)O)cnc5c4)c3Cl)c2Cl)ccc1CNC[C@@H]1CCC(=O)N1` [Example 131, 8-(2,2′-dichloro-3′-(6-methoxy-5-(((((S)-5-oxopyrrolidin-2-yl)methyl)amino)methyl)pyridin-2-yl)-[1,1′-biphenyl]-3-yl)-3-((((S)-2-hydroxypropyl)amino)methyl)-4H-pyrido[1,2-a]pyrimidin-4-one], the pIC50 (usually −log10 of the IC50, conventionally taken in molar units) is 8.77.

Molecule `COc1nc(-c2cccc(-c3cccc(-c4ccn5c(=O)c(CNC[C@@H](C)O)cnc5c4)c3Cl)c2Cl)ccc1CNC[C@@H]1CCC(=O)N1` [Example 132, 8-(2,2′-Dichloro-3′-(6-methoxy-5-(((((S)-5-oxopyrrolidin-2-yl)methyl)amino)methyl)pyridin-2-yl)-[1,1′-biphenyl]-3-yl)-3-((((R)-2-hydroxypropyl)amino)methyl)-4H-pyrido[1,2-a]pyrimidin-4-one] had a pIC50 of 8.77.

In turn, `COc1nc(-c2cccc(-c3cccc(-c4ccn5c(=O)c(CNCC(C)(C)O)cnc5c4)c3Cl)c2Cl)ccc1CNC[C@@H]1CCC(=O)N1` [Example 133, (S)-8-(2,2′-Dichloro-3′-(6-methoxy-5-((((5-oxopyrrolidin-2-yl)methyl)amino)methyl)pyridin-2-yl)-[1,1′-biphenyl]-3-yl)-3-(((2-hydroxy-2-methylpropyl)amino)methyl)-4H-pyrido[1,2-a]pyrimidin-4-one] showed a pIC50 of 8.82.

In turn, `COc1nc(-c2cccc(-c3cccc(-c4ccn5c(=O)c(CN6C[C@H](O)C[C@@H]6C(=O)O)cnc5c4)c3Cl)c2Cl)ccc1CNC[C@@H]1CCC(=O)N1` [Example 134, (2R,4R)-1-((8-(2,2′-Dichloro-3′-(6-methoxy-5-(((((S)-5-oxopyrrolidin-2-yl)methyl)amino)methyl)pyridin-2-yl)-[1,1′-biphenyl]-3-yl)-4-oxo-4H-pyrido[1,2-a]pyrimidin-3-yl)methyl)-4-hydroxypyrrolidine-2-carboxylic acid] had a pIC50 of 8.96.

`COc1nc(-c2cccc(-c3cccc(-c4ccn5c(=O)c(CN6CC(CO)C6)cnc5c4)c3Cl)c2Cl)ccc1CN1CC[C@H](C(=O)O)C1` [Example 135, (S)-1-((6-(2,2′-Dichloro-3′-(3-((3-(hydroxymethyl)azetidin-1-yl)methyl)-4-oxo-4H-pyrido[1,2-a]pyrimidin-8-yl)-[1,1′-biphenyl]-3-yl)-2-methoxypyridin-3-yl)methyl)pyrrolidine-3-carboxylic acid] had a pIC50 of 9.70.

Regarding `COc1nc(-c2cccc(-c3cccc(-c4ccn5c(=O)c(CN6CC(CO)C6)cnc5c4)c3Cl)c2Cl)ccc1CN1CC(C(=O)O)C1` [Example 136, 1-((6-(2,2′-Dichloro-3′-(3-((3-(hydroxymethyl)azetidin-1-yl)methyl)-4-oxo-4H-pyrido[1,2-a]pyrimidin-8-yl)-[1,1′-biphenyl]-3-yl)-2-methoxypyridin-3-yl)methyl)azetidine-3-carboxylic acid], the pIC50 is 9.70.

The molecule `COC(=O)CCCNCc1cnc2cc(-c3cccc(-c4cccc(-c5ccc(CNC[C@@H]6CCC(=O)N6)c(OC)n5)c4Cl)c3Cl)ccn2c1=O` [Example 137, Methyl (S)-4-(((8-(2,2′-dichloro-3′-(6-methoxy-5-((((5-oxopyrrolidin-2-yl)methyl)amino)methyl)pyridin-2-yl)-[1,1′-biphenyl]-3-yl)-4-oxo-4H-pyrido[1,2-a]pyrimidin-3-yl)methyl)amino)butanoate] had a pIC50 of 8.77.

The molecule `COc1ccc(CNCc2cnc3cc(-c4cccc(-c5cccc(-c6ccc(CNC[C@@H]7CCC(=O)N7)c(OC)n6)c5Cl)c4Cl)ccn3c2=O)c(OC)c1` [Example 138, (S)-8-(2,2′-Dichloro-3′-(6-methoxy-5-((((5-oxopyrrolidin-2-yl)methyl)amino)methyl)pyridin-2-yl)-[1,1′-biphenyl]-3-yl)-3-(((2,4-dimethoxybenzyl)amino)methyl)-4H-pyrido[1,2-a]pyrimidin-4-one] showed a pIC50 of 8.85.

Take `COc1nc(-c2cccc(-c3cccc(-c4ccn5c(=O)c(CNC6(CC(=O)O)CC6)cnc5c4)c3Cl)c2Cl)ccc1CNC[C@@H]1CCC(=O)N1` [Example 139, (S)-2-(1-(((8-(2,2′-Dichloro-3′-(6-methoxy-5-((((5-oxopyrrolidin-2-yl)methyl)amino)methyl)-pyridin-2-yl)-[1,1′-biphenyl]-3-yl)-4-oxo-4H-pyrido[1,2-a]pyrimidin-3-yl)methyl)amino)-cyclopropyl)acetic acid]: the pIC50 was 9.40.

The molecule `COc1nc(-c2cccc(-c3cc(F)cc(-c4ccn5c(=O)c(CNC[C@@H]6CCC(=O)N6)cnc5c4)c3Cl)c2Cl)ccc1CNC[C@@H]1CCC(=O)N1` [Example 140, 8-(2,2′-Dichloro-5-fluoro-3′-(6-methoxy-5-(((((S)-5-oxopyrrolidin-2-yl)methyl)amino)methyl)pyridin-2-yl)-[1,1′-biphenyl]-3-yl)-3-(((((S)-5-oxopyrrolidin-2-yl)methyl)amino)methyl)-4H-pyrido[1,2-a]pyrimidin-4-one] gave a pIC50 of 8.70. Compared with the last molecule, the pIC50 is 0.70 log units lower.

`COc1nc(-c2cccc(-c3cc(Cl)cc(-c4ccn5c(=O)c(CNC[C@@H]6CCC(=O)N6)cnc5c4)c3Cl)c2Cl)ccc1CNC[C@@H]1CCC(=O)N1` [Example 141, 3-(((((S)-5-Oxopyrrolidin-2-yl)methyl)amino)methyl)-8-(2,2′,5-trichloro-3′-(6-methoxy-5-(((((S)-5-oxopyrrolidin-2-yl)methyl)amino)methyl)pyridin-2-yl)-[1,1′-biphenyl]-3-yl)-4H-pyrido[1,2-a]pyrimidin-4-one] gave a pIC50 of 8.24.

Consider `COc1nc(-c2cccc(-c3cccc(-c4ccn5c(=O)c(CNC[C@@H]6CCC(=O)N6)cnc5c4)c3Cl)c2Cl)ccc1CN[C@H]1C[C@](C)(O)C1` [Example 142, 8-(2,2′-Dichloro-3′-(5-((((1r,3r)-3-hydroxy-3-methylcyclobutyl)amino)methyl)-6-methoxypyridin-2-yl)-[1,1′-biphenyl]-3-yl)-3-(((((S)-5-oxopyrrolidin-2-yl)methyl)amino)methyl)-4H-pyrido[1,2-a]pyrimidin-4-one], for which the pIC50 is 8.77. This pIC50 lies 0.53 log units higher than the previous one.

Regarding `COc1nc(-c2cccc(-c3cccc(-c4ccn5c(=O)c(CN[C@H]6C[C@](C)(O)C6)cnc5c4)c3Cl)c2Cl)ccc1CNC[C@@H]1CCC(=O)N1` [Example 143, 8-(2,2′-Dichloro-3′-(6-methoxy-5-(((((S)-5-oxopyrrolidin-2-yl)methyl)amino)methyl)pyridin-2-yl)-[1,1′-biphenyl]-3-yl)-3-((((1r,3r)-3-hydroxy-3-methylcyclobutyl)amino)methyl)-4H-pyrido[1,2-a]pyrimidin-4-one], the pIC50 was 8.74. This pIC50 and that of the molecule before are within 0.2 log units of each other.

`COc1nc(-c2cccc(-c3cccc(-c4ccn5c(=O)c(CN6CC[C@H](O)C6)cnc5c4)c3Cl)c2Cl)ccc1CNC[C@@H]1CCC(=O)N1` [Example 144, 8-(2,2′-Dichloro-3′-(6-methoxy-5-(((((S)-5-oxopyrrolidin-2-yl)methyl)amino)methyl)pyridin-2-yl)-[1,1′-biphenyl]-3-yl)-3-(((S)-3-hydroxypyrrolidin-1-yl)methyl)-4H-pyrido[1,2-a]pyrimidin-4-one] showed a pIC50 of 8.51. This pIC50 is 0.23 log units lower than that of the molecule before.

As to `COc1nc(-c2cccc(-c3cccc(-c4ccn5c(=O)c(CNC[C@@H]6CCC(=O)N6)cnc5c4)c3Cl)c2C#N)ccc1CNC[C@@H]1CCC(=O)N1` [Example 145, 2′-Chloro-3-(6-methoxy-5-(((((S)-5-oxopyrrolidin-2-yl)methyl)amino)methyl)pyridin-2-yl)-3′-(4-oxo-3-(((((S)-5-oxopyrrolidin-2-yl)methyl)amino)methyl)-4H-pyrido[1,2-a]pyrimidin-8-yl)-[1,1′-biphenyl]-2-carbonitrile], the pIC50 is 8.66.

For the molecule `COc1cc(-c2ccc(CNC[C@@H]3CCC(=O)N3)c(OC)n2)c(Cl)c(-c2cccc(-c3ccn4c(=O)c(CNC[C@@H]5CCC(=O)N5)cnc4c3)c2Cl)c1` [Example 146, 8-(2,2′-Dichloro-5′-methoxy-3′-(6-methoxy-5-(((((S)-5-oxopyrrolidin-2-yl)methyl)amino)methyl)pyridin-2-yl)-[1,1′-biphenyl]-3-yl)-3-(((((S)-5-oxopyrrolidin-2-yl)methyl)amino)methyl)-4H-pyrido[1,2-a]pyrimidin-4-one], the pIC50 was 6.62.

As to `COc1nc(-c2cccc(-c3cccc(-c4ccn5c(=O)c(CNC[C@@H]6CCC(=O)N6)cnc5c4)c3Cl)c2Cl)cc(F)c1CNC[C@@H]1CCC(=O)N1` [Example 147, 8-(2,2′-Dichloro-3′-(4-fluoro-6-methoxy-5-(((((S)-5-oxopyrrolidin-2-yl)methyl)amino)methyl)pyridin-2-yl)-[1,1′-biphenyl]-3-yl)-3-(((((S)-5-oxopyrrolidin-2-yl)methyl)amino)methyl)-4H-pyrido[1,2-a]pyrimidin-4-one], the pIC50 was 8.41.

`COc1nc(-c2cccc(-c3cccc(-c4ccn5c(=O)c(CN6C[C@@H](O)C[C@H]6C(=O)O)cnc5c4)c3Cl)c2Cl)ccc1CNC[C@@H]1CCC(=O)N1` [Example 148, (2S,4S)-1-((8-(2,2′-Dichloro-3′-(6-methoxy-5-(((((S)-5-oxopyrrolidin-2-yl)methyl)amino)methyl)pyridin-2-yl)-[1,1′-biphenyl]-3-yl)-4-oxo-4H-pyrido[1,2-a]pyrimidin-3-yl)methyl)-4-hydroxypyrrolidine-2-carboxylic acid] had a pIC50 of 9.40.

For `COc1nc(-c2cccc(-c3cccc(-c4ccn5c(=O)c(CN6C[C@@H](O)C[C@@H]6C(=O)O)cnc5c4)c3Cl)c2Cl)ccc1CNC[C@@H]1CCC(=O)N1` [Example 149, (2R,4S)-1-((8-(2,2′-Dichloro-3′-(6-methoxy-5-(((((S)-5-oxopyrrolidin-2-yl)methyl)amino)methyl)pyridin-2-yl)-[1,1′-biphenyl]-3-yl)-4-oxo-4H-pyrido[1,2-a]pyrimidin-3-yl)methyl)-4-hydroxypyrrolidine-2-carboxylic acid], the pIC50 was 9.52.
